Experimental data: patent US5496703A, “Indirect immunoassay for dioxinlike compounds” (priority 1993, dated 1996)
“Also recorded” adds a separate entry of the source.

Assays:
human receptor = settings: cited from earlier work
rodents = settings: guinea pig to hamster; cited from earlier work
Ah receptor [1] = settings: cited from earlier work
[2] = system: total hepatic S-9 protein tyrosylphosphorylation; test: ELISA with antiphosphotyrosine monoclonal antibody, total hepatic S-9 protein tyrosylphosphorylation, mice dosed i.p.; assay type: in vivo, C57BL/6 mice
Procedure: (§1) Female, C57BL/6 mice (or any cytochrome P-450IA1 inducible strain) were obtained from Harton Sprague Dawley (Indianapolis, Ind.). Experiments were performed using four to six week old, female mice weighing approximately 16 to 20 g. Mice were fed Prolab RMH 1000 rat, mouse and hamster food (Agway, Cortland, N.Y.) and received tap water ad libitum. All mice were housed three to five per cage and maintained on a photoperiod of 12 hours. Mice were killed 24 hours following an intraperitoneal injection of either corn oil alone or TCDD (Analabs) at 0.25, 0.5, 1, 2, 4, 10, 50 μg/kg, the volume of the injections ranged from 0.1 to 0.2 ml per mouse. Hepatic S-9 fractions were prepared by homogenizing the liver in 3 times the volume of 0.15M KCl. Following a 9000×g centrifugation for 20 minutes, the supernatant (S-9) fraction was carefully removed and quickly frozen for storage at -80° C.
ELISA were performed with 96-well microtiter plates precoated with antigen. S-9 was used as antigen and was prepared as a series of geometric dilutions ranging from 0.4 to 500 μg protein/mL PBS. One-tenth mL from each dilution was promptly pipetted into the wells of a the microtiter plate in quadruplicate. Plates were incubated overnight at 4° C. After washing with 0.05% Tween 20 (polyoxyethylenesorbitan monolaurate) in phosphate buffered saline (PBS), individual wells were saturated with 0.2 mL bovine serum albumin (20 mg/mL in PBS) for 2 hours at 37° C. Wells were then incubated with antiphosphotyrosine monoclonal antibody (1.5 μg/mL ascites fluid) in 1 mg/mL bovine serum albumin and 0.05% Tween 20 in PBS, and bound for 1 to 1.5 hours at 22° C. Incubation with horseradish peroxidase-linked antimouse IgG (Sigma, St. Louis; 0.5×10^3 mg IgG/mL PBS) and subsequent washing was performed as with the original monoclonal antibody. Peroxidase activity was determined after incubation with substrate (0.03% H2 O2 and 1 mM 2,2'-azinodi(d-ethyl-benzthiazoline sulfonic acid-6) dissolved in 100 mM sodium citrate (pH 4.2) at 22° C. At the first visualization of color change A415 values were recorded.

[3] = system: protein tyrosylphosphorylation of hepatic S-9 proteins; test: Immunoblot / densitometry of hepatic S-9 phosphotyrosyl proteins, mice dosed i.p.; assay type: in vivo, C57BL/6 mice
Procedure: as §1
The separation of S-9 proteins by means of SDS PAGE was performed by mixing the S-9 1:1 with a double strength sodium dodecyl sulfate sample buffer and heating the solution at 100° C. for 3 minutes prior to one-dimensional SDS polyacrylamide gel electrophoresis with 10% polyacrylamide. After electrophoresis, a Milliblot SDS electroblot apparatus (Millipore, Bedford, Mass.) was used to transfer the proteins from the polyacrylamide gels to an Immobilon™ membrane filter (Millipore). Complete transfers were accomplished in 25-30 minutes at 500 mA and were assessed by tracking pre-stained molecular weight standards onto the membrane filter. Membrane filters were blocked by incubating in TBS (Tris buffered saline) containing 5% milk for 30 minutes at 37° C. The membranes were then washed in TBST (TBS with 0.05% Tween 20) and incubated overnight with antiphosphotyrosine monoclonal antibody (1.5 μg/mL) in TBST. The primary antibody was removed, and the membranes were washed four times in TBST. To visualize the antibody reaction, the membranes were incubated for 3 hours at 37° C. with alkaline phosphatase-conjugated antimouse IgG diluted 1:1000 in TBST, washed 3 times in TBST, and developed for 15 to 30 minutes. Determination of molecular weights of immuno-stained proteins was performed by adding molecular weight standards (Bio Rad) to reference lanes and staining the membrane filters with amido black.
The indicated densitometric measurements were made on a BioImage AK Kodak Visage 110.
An estimate of the limit of detection of dioxinlike activity can be made using the 0.25 μg/kg dose as the minimally effective dose. At this level of administration of TCDD, the 37 kDalton band becomes easily visible. Assuming a 20 g mouse, the diethyl ether extract would have to contain 5 ng of dioxin equivalents to initiate a tryosylphosphorylation of the 37 kDalton protein. […]

phospholipase C = settings: certain cell lines; cited from earlier work
Ah receptor [4] = settings: C57BL/6J mouse; cited from earlier work
cytochrome P-450IA1 = test: Ethoxyresorufin O-deethylase assay (EROD), hepatic S-9, mice dosed i.p.; assay type: in vivo, C57BL/6 mice; settings: hepatic S-9, i.p., 24 hours after dosing
Procedure: as §1, with “Hepatic S-9 fractions were prepared by homogenizing the liver in 3 times the volume of 0.15M KCl. Following a 9000×g centrifugation for 20 minutes, the supernatant (S-9) fraction was carefully removed and quickly frozen for storage at -80° C.” left out
Resorufin (hydroxyphenoxazone) and ethoxyresorufin was purchased from Molecular Probes (Junction City, Oreg.). EROD was measured by following the increase in fluorescence due to the formation of resorufin by dealkylation of its ethoxy derivative. […] A baseline of fluorescence was recorded at an excitation wavelength of 530 nm and an emission wavelength of 585 nm. The reaction was started with the addition of NADPH and the dealkylation of the derivative to resorufin was followed by a progressive increase in fluorescence as resorufin was generated. Recordings were standardized by measuring the fluorescence of freshly generated resorufin from resorufin acetate (Sigma, St. Louis, Mo.) prior to each assay. […]

[5] = cited from earlier work

SMILES: Clc1cc2c(cc1Cl)Oc1cc(Cl)c(Cl)cc1O2 [TCDD, 2,3,7,8-tetrachlorodibenzo-p-dioxin]
- binding to human receptor (human receptor): Weaker binding
- range of LD50 among rodents (rodents): ≥ 2500 fold
- hepatic level of TCDD binding Ah receptor (Ah receptor [1]; DBA/2 mouse): less than 1 fmol of receptor/mg of cytosolic protein
- binding to DBA/2 mouse receptor (Ah receptor [1]): Weaker binding
- dose of maximal total protein tyrosylphosphorylation ([2]; ELISA, i.p., 24 hours after dosing, female C57BL/6 mice): 2 μg TCDD/kg
- ED50 ([2]; Mus musculus, ip, ELISA, i.p., 24 hours after dosing, female C57BL/6 mice, read-out: median effective dose (ED50), total hepatic S-9 pTP): 0.5 µg/kg
- separation of ED50s for total protein or 44 kDalton pTP and EROD ([2]; ratio to EROD ED50 (A3), C57BL/6 mice): 10 factor
- minimal effective dose ([3]; Mus musculus, ip, 24 h, in vivo limit-of-detection estimate, read-out: minimally effective dose (37 kDalton band easily visible)): 0.25 µg/kg
- ED50 ([3]; Mus musculus, ip, densitometry of immunoblot, i.p., 24 hours after dosing, read-out: ED50, 44 kDalton protein tyrosylphosphorylation): 0.5 µg/kg
- dose of maximal 44 kDalton protein tyrosylphosphorylation ([3]; densitometry of immunoblot, i.p., 24 hours after dosing): 1 μg TCDD/kg
- tyrosylphosphorylation of the 37 kDalton protein ([3]; immunoblot, i.p., 24 hours): resulted in the tyrosylphosphorylation of the 37 kDalton protein; also recorded: highly phosphorylated at tyrosine residues
- phospholipase C activation (phospholipase C): activates protein kinase C in certain cell lines but also phospholipase C
- hepatic level of Ah receptor capable of binding TCDD (Ah receptor [4]): 40-120 fmol/mg of protein
- ED50, cytochrome P-450IA1 expression (EROD) (cytochrome P-450IA1): 5 μg TCDD/kg
- dose of maximal EROD activity (cytochrome P-450IA1): 50 μg TCDD/kg
- difference in whole body half-life between guinea pig and hamster ([5]; guinea pig versus hamster): 3 fold
- whole-body half-life ([5]; rodents): on the order of weeks
